Measured values from US20260092061A1, “COMPOUNDS FOR TARGETED PROTEIN DEGRADATION” (Amphista Therapeutics Limited, priority 2022, published 2026).

Molecular target: T1, BRD9 (Homo sapiens, UniProt Q9H8M2)
T1 sequence (Q9H8M2 1-597): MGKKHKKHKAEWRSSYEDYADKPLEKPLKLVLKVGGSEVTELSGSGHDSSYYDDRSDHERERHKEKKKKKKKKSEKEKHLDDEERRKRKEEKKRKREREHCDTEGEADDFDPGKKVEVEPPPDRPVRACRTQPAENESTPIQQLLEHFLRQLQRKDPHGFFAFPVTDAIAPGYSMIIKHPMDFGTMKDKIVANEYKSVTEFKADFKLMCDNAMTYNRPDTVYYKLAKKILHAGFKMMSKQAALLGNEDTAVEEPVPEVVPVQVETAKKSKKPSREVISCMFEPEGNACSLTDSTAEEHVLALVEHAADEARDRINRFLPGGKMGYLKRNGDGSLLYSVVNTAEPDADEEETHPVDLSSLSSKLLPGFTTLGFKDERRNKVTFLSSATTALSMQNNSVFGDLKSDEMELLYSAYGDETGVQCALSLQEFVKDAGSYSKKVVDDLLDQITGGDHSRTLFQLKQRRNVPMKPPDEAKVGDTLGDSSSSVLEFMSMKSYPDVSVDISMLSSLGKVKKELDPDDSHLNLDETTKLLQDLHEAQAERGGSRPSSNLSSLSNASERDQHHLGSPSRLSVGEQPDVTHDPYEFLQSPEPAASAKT
Test: Degradation of BRD9 (IF), immunofluorescence in MV4-11 cells, 24 hours (Assay Protocol 2)
Format: cell-based
Design: A suspension of MV4-11 cells (ATCC CRL-9591) was prepared; host or cells: MV4-11
Details: BRD9 degradation; for DC50: Assay protocol 2, read-out: DC50; for Dmax: MV4-11, Assay protocol 2, read-out: Dmax
In short: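 MV4-11 cells treated with compound 24 h at 37° C., then fixed, permeabilised and immunostained for BRD9 (anti-BRD9 E4Q3F, Alexa 647 secondary, Hoechst counterstain). High-content imaging quantified nuclear BRD9 signal; % BRD9 remaining normalised to DMSO and 100 nM CFT-8634 controls.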

| DC50 [nM] | Dmax [%] | Structure (SMILES) |
| --- | --- | --- |
| 25 to 1000 | 40 to 70 | COc1cc(-c2cn(C)c(=O)c(C)c2C)cc(OC)c1CN1CCCN(c2ccc3c(c2)[C@H](C)N(C(=O)/C(C#N)=C/C(C)(C)CF)CC3)CC1 (mixture of isomers) [Compound C68, (E/Z)-2-(7-(4-(2,6-dimethoxy-4-(1,4,5-trimethyl-6-oxo-1,6-dihydropyridin-3-yl)benzyl)-1,4-diazepan-1-yl)-1-methyl-1,2,3,4-tetrahydroisoquinoline-2-carbonyl)-5-fluoro-4,4-dimethylpent-2-enenitrile] |
| 10 to 25 | 40 to 70 | COc1cc(-c2cn(C)c(=O)c(C)c2C)cc(OC)c1CN1CCCN(c2ccc3c(c2)[C@@H](C)N(C(=O)/C(C#N)=C/C(C)(C)CF)CC3)CC1 (mixture of isomers) [Compound C69, (E/Z)-2-(7-(4-(2,6-dimethoxy-4-(1,4,5-trimethyl-6-oxo-1,6-dihydropyridin-3-yl)benzyl)-1,4-diazepan-1-yl)-1-methyl-1,2,3,4-tetrahydroisoquinoline-2-carbonyl)-5-fluoro-4,4-dimethylpent-2-enenitrile] |
| 25 to 1000 | > 75 | COc1cc(-c2cn(C)c(=O)c(C)c2C)ccc1OC1CCN(Cc2cccc3c2CCN(C(=O)/C(C#N)=C/C(C)(C)C)C3C)C2(CC2)C1 (mixture of isomers) [Compound C72, (E/Z)-2-(5-((7-(2-methoxy-4-(1,4,5-trimethyl-6-oxo-1,6-dihydropyridin-3-yl)phenoxy)-4-azaspiro[2.5]octan-4-yl)methyl)-1-methyl-1,2,3,4-tetrahydroisoquinoline-2-carbonyl)-4,4-dimethylpent-2-enenitrile] |
| 25 to 1000 | > 75 | COc1cc(-c2cn(C)c(=O)c(C)c2C)ccc1CC1CCN(Cc2cccc3c2CCN(C(=O)/C(C#N)=C/C(C)(C)C)C3C)C(C)(C)C1 (mixture of isomers) [Compound C74] |
| 25 to 1000 | > 75 | COc1cc(-c2cn(C)c(=O)c(C)c2C)cc(OC)c1CN1CCN(S(=O)(=O)c2cccc3c2CCN(C(=O)/C(C#N)=C\C(C)(C)C)C3C)CC1 (mixture of isomers) [Compound C75, (E/Z)-2-(5-((4-(2,6-dimethoxy-4-(1,4,5-trimethyl-6-oxo-1,6-dihydropyridin-3-yl)benzyl)piperazin-1-yl)sulfonyl)-1-methyl-1,2,3,4-tetrahydroisoquinoline-2-carbonyl)-4,4-dimethylpent-2-enenitrile] |
| 1.25 to 10 | 70 to 75 | COc1cc(-c2cn(C)c(=O)c(C)c2C)cc(OC)c1CN1CCC(Cc2cccc3c2CCN(C(=O)/C(C#N)=C/C(C)(C)CF)C3C(C)C)CC1 (mixture of isomers) [Compound C80] |
| 1.25 to 10 | > 75 | COc1cc(-c2cn(C)c(=O)c(C)c2C)cc(OC)c1CN1CCCN(Cc2cccc3c2CCN(C(=O)/C(C#N)=C/C(C)(C)CF)[C@@H]3C(C)C)CC1 (mixture of isomers) [Compound C84, (E/Z)-2-(5-((4-(2,6-dimethoxy-4-(1,4,5-trimethyl-6-oxo-1,6-dihydropyridin-3-yl)benzyl)-1,4-diazepan-1-yl)methyl)-1-isopropyl-1,2,3,4-tetrahydroisoquinoline-2-carbonyl)-5-fluoro-4-dimethylpent-2-enenitrile] |
| 10 to 25 | 40 to 70 | COc1cc(-c2cn(C)c(=O)c(C)c2C)cc(OC)c1CN(C)Cc1cccc2c1CCN(C(=O)/C(C#N)=C/C(C)(C)C)C2C(C)C (mixture of isomers) [Compound C95, (E/Z)-2-(5-(((2,6-dimethoxy-4-(1,4,5-trimethyl-6-oxo-1,6-dihydropyridin-3-yl)benzyl)(methyl)amino)methyl)-1-isopropyl-1,2,3,4-tetrahydroisoquinoline-2-carbonyl)-4,4-dimethylpent-2-enenitrile] |
| 10 to 25 | > 75 | COc1cc(-c2cn(C)c(=O)c(C)c2C)cc(OC)c1CN1C[C@H](C)N(Cc2cccc3c2CCN(C(=O)/C(C#N)=C/C(C)(C)CF)C3C(C)C)C[C@H]1C (mixture of isomers) [Compound C98, (E/Z)-2-(5-(((2S,5R)-4-(2,6-dimethoxy-4-(1,4,5-trimethyl-6-oxo-1,6-dihydropyridin-3-yl)benzyl)-2,5-dimethylpiperazin-1-yl)methyl)-1-isopropyl-1,2,3,4-tetrahydroisoquinoline-2-carbonyl)-5-fluoro-4,4-dimethylpent-2-enenitrile] |
| < 1.25 | > 75 | COc1cc(-c2cn(C)c(=O)c(C)c2C)cc(OC)c1CN1CCN(Cc2ccc3c(c2)C(C)N(C(=O)/C(C#N)=C/C(C)(C)C)CC3)C2(CC2)C1 (mixture of isomers) [Compound C106, (E/Z)-2-(7-((7-(2,6-dimethoxy-4-(1,4,5-trimethyl-6-oxo-1,6-dihydropyridin-3-yl)benzyl)-4,7-diazaspiro[2.5]octan-4-yl)methyl)-1-methyl-1,2,3,4-tetrahydroisoquinoline-2-carbonyl)-4,4-dimethylpent-2-enenitrile] |
| < 1.25 | > 75 | COc1cc(-c2cn(C)c(=O)c(C)c2C)cc(OC)c1CN1CCN(Cc2cccc3c2CCN(C(=O)/C(C#N)=C/C(C)(C)C)[C@H]3C)C2(CC2)C1 (single isomer, unassigned) [Compound B146, (E/Z)-2-(5-((7-(2,6-dimethoxy-4-(1,4,5-trimethyl-6-oxo-1,6-dihydropyridin-3-yl)benzyl)-4,7-diazaspiro[2.5]octan-4-yl)methyl)-1-methyl-1,2,3,4-tetrahydroisoquinoline-2-carbonyl)-4,4-dimethylpent-2-enenitrile] |
| 1.25 to 10 | > 75 | COc1cc(-c2cn(C)c(=O)c(C)c2C)cc(OC)c1CN1CCCN(Cc2cccc3c2CCN(C(=O)/C(C#N)=C/C(C)(C)C)[C@@H]3C)CC1 (single isomer, unassigned) [Compound B192, (E/Z)-2-(5-((4-(2,6-dimethoxy-4-(1,4,5-trimethyl-6-oxo-1,6-dihydropyridin-3-yl)benzyl)-1,4-diazepan-1-yl)methyl)-1-methyl-1,2,3,4-tetrahydroisoquinoline-2-carbonyl)-4,4-dimethylpent-2-enenitrile] |
| < 1.25 | > 75 | COc1cc(-c2cn(C)c(=O)c(C)c2C)cc(OC)c1CN1CCN(Cc2cccc3c2CCN(C(=O)/C(C#N)=C/C2(C)CCOCC2)[C@@H]3C)C2(CC2)C1 (single isomer, unassigned) [Compound B193, (E/Z)-2-(5-((7-(2,6-dimethoxy-4-(1,4,5-trimethyl-6-oxo-1,6-dihydropyridin-3-yl)benzyl)-4,7-diazaspiro[2.5]octan-4-yl)methyl)-1-methyl-1,2,3,4-tetrahydroisoquinoline-2-carbonyl)-3-(4-methyltetrahydro-2H-pyran-4-yl)acrylonitrile] |
| 1.25 to 10 | 40 to 70 | COc1cc(-c2cn(C)c(=O)c(C)c2C)cc(OC)c1CN1CCN(Cc2cccc3c2CCN(C(=O)/C(C#N)=C/C2(C)CCOCC2)[C@H]3C)C2(CC2)C1 (single isomer, unassigned) [Compound B194, (E/Z)-2-(5-((7-(2,6-dimethoxy-4-(1,4,5-trimethyl-6-oxo-1,6-dihydropyridin-3-yl)benzyl)-4,7-diazaspiro[2.5]octan-4-yl)methyl)-1-methyl-1,2,3,4-tetrahydroisoquinoline-2-carbonyl)-3-(4-methyltetrahydro-2H-pyran-4-yl)acrylonitrile] |
